Data on one molecule can be found in patent US20240376052A1, “N-SUBSTITUTED INDOLE DERIVATIVES AS SEROTONERGIC AGENTS USEFUL FOR THE TREATMENT OF DISORDERS RELATED THERETO” (Mindset Pharma Inc., priority 2021, published 2024).

For one data set, the target named is human 5-HT2A receptor (Homo sapiens (Human), UniProt P28223). Description: Human 5-HT2A radioligand binding assay ([3H]-ketanserin).
In data set [1] the test system is mice. Description: Mouse 5-HT syndrome assay. Particulars: up to 60 mg/kg SC. It counts as in vivo. The procedure: (§1) The effect of different doses of representative compounds of Formula I were evaluated on head-twitch response (HTR) and other behavioural responses indicative of serotonin syndrome as behavior-based models of psychedelic activity.
Another data set relates to C57BL/6J mice. The experiment in a line: Mouse head twitch. It counts as in vivo. Conditions: mouse. The procedure: as §1
Male, C57BL/6J mice (body weight range 20-30 g) were dosed with the appropriate dose of test article, and following a 1-minute pre-treatment time, placed in individual observation chambers. Animals were visually assessed for the incidence head twitches continuously over a 1 hr period. Head twitches were defined as a rapid jerk of the head which was not elicited by an external tactile stimulus (Come and Pickering, Psychopharmacologia, 1967, 11(1): 65-78). Each head twitch was individually counted by a trained observer, and the data expressed as the mean+SEM of 6-10 mice per group. Mice were used in a single experiment only.

Data set [2] has as its system mice. The experiment in a line: Mouse locomotor activity and rearing assay. Conditions: 1-30 mg/kg, compared with 5-MeO-DMT.

SMILES strings stand for the structures. Where only a bound is given, the exact number is not on record here.

For `CCCCC/C=C\C/C=C\CCCCCCCC(=O)n1cc(CCN(C)C)c2cc(OC)ccc21` [Compound I-1, (9Z,12Z)-1-(3-(2-(Dimethylamino)ethyl)-5-methoxy-1H-indol-1-yl)octadeca-9,12-dien-1-one], on human 5-HT2A receptor, the IC50 – broadly, the concentration that inhibits the measured activity by half – was under 2000 nM. Further, in the data set on mice [1], the “signs of 5-HT syndrome (whole body twitches, FPT, Straub tail)” value is recorded as “did not induce signs of 5-HT syndrome”. In addition, the “head twitch response expression” value in the data set on C57BL/6J mice (1-60 mg/kg SC) is “robust head twitch response”. Moreover, the 50% effective dose (ED50) (as a rule, the midpoint of the dose-response relation) in the data set on C57BL/6J mice (SC, read-out: ED50, head twitch response) was 2.8 mg/kg. Moreover, the “duration of HT expression” value in the data set on C57BL/6J mice (at 10-30 mg/kg) lay within 0 to 30 min. The “motor activity or rearing” value in the data set with mice [2] is given as “did not reduce motor activity or rearing to the same extent as 5-MeO-DMT”.
